Measured values: patent US20250381110A1, “SKIN CARE COMPOSITION AND METHOD OF USING THE SAME” (THE PROCTER & GAMBLE COMPANY, priority 2024, published 2025)
Where a name gives a salt, the structure may show the parent alone. Read-outs that look alike come from different tables or passages of the source.

Tested on: p62-dependent mitophagy
Experiment: Luciferase-p62 assay (Fluc-p62 clearance) in mouse embryonic fibroblasts
Assay type: cell-based
Procedure: To identify p62-dependent materials which increase mitophagy, a Luciferase-p62 Assay was established. This method provides an approach to measure the ability of a material to modulate p62-dependent mitophagy by using an inducible firefly luciferase-p62 (Fluc-p62) reporter cell system. In this assay, p62 levels are driven by doxycycline treatment. After levels increased, expression of Fluc-p62 is turned off by removal of doxycycline, materials are then added and assessed for how they affect clearance of Fluc-p62 protein, which is proportionate to cellular mitophagy rates (Kelly et al.). The negative control is doxycycline induced Luc-p62 in the absence of compound or bioactive material treatment and in the presence of vehicle (DMSO).
Test materials including bioactive materials were screened in mouse embryonic fibroblasts (MEFs, Harada et al.) expressing the TET-inducible p62-fluc construct as previously described (Brown et al.). […] Gibson assembly was used to insert firefly luciferase (Fluc) and p62 into the pCW57.1 backbone. Fluc, p62, and pCW57.1 were polymerase chain reaction (PCR) amplified using pfu polymerase (Life technologies) and Gibson assembly primers with 20 base pair (bp) overhangs. PCR products were separated by agarose gel electrophoreses, and fragments excised and purified before use in DNA assembly reaction with NEBuilder HiFi DNA Assembly kit (New England Biolabs). After the assembly, the reaction mix was transformed into NEB3040 Stable Competent Escherichia coli (New England Biolabs). After 24 hours growth at 31 degrees Celsius the plasmid was extracted using QIAprep Spin Miniprep kit (Qiagen). The plasmid was sequenced to confirm correct insertion of Fluc-p62. To generate MEFs stably expressing doxycycline inducible Fluc-p62, HEK293FT cells were transfected with Fluc-p62-pCW57.1 and the ViraPower Packaging Mix (Invitrogen) to produce lentivirus. MEFs were transduced with the obtained lentiviral stock following followed by selection with 1 microgram per milliliter puromycin.Fluc-p62expressing MEFs were maintained in DMEM supplemented with 10 percent fetal bovine serum (FBS), 100 units per milliliter penicillin/streptomycin, and 2 millimolar L-glutamine in a humidified atmosphere containing 5 percent carbon dioxide at 37 degrees Celsius. Cells were plated into white 96 well plates (2,000 cells per well with 100 microliters media) and allowed to settle for 24 hours. […] Subsequently, cells were treated with test materials for 48 hours in normal growth medium and analysed using ONE-Glo™+Tox Luciferase Reporter and Cell Viability Assay (Promega) by following the manufacturer's protocol.
Test compositions and control compositions were prepared as described above in the Luciferase-p62 assay (Method 3) and tested accordingly. The compounds used in this example, as examples of bioactive materials, were from the APExBIO DiscoveryProbe™ Natural Product Library Plus (Houston, TX) and evaluated at equivalent concentrations (10 μM).
Data are additionally calculated as percentage of activity relative to rapamycin, a benchmark control compound tested in the same experiment.

[1] = Luciferase-p62 assay, mouse embryonic fibroblasts (MEFs), compounds at 10 μM
[2] = percentage of Luciferase-p62 clearance relative to baseline (mean luminescence in the absence of doxycycline induction), MEFs, 10 μM
[3] = percentage of activity relative to rapamycin tested in the same experiment at the same concentration, MEFs, 10 μM

Compound	Mean Luminescence [1]	% Activity over baseline [2] [%]	% Activity relative to Rapamycin [3] [%]	Mean Luminescence	% Activity over baseline (10 µM) [%]	% Activity relative to Rapamycin (10 µM) [%]
C[C@]12C[C@H](O)[C@H]3[C@@H](CCC4=CC(=O)CC[C@@]43C)[C@@H]1CC[C@@H]2C(=O)CO [Corticosterone]	870.00	46.23	83.30	–	–	–
CN(CC(=O)O)C(=N)N.O [Creatine monohydrate]	901.68	44.28	79.77	–	–	–
N=c1ccn2c(n1)O[C@H]1[C@H](O)[C@@H](CO)O[C@H]12 [Cyclocytidine HCl]	914.30	43.50	78.37	–	–	–
CC1=C2C[C@H]3[C@@H](CC=C4C[C@@H](O)CC[C@@]43C)[C@@H]2CC[C@]12O[C@@H]1C[C@H](C)CN[C@H]1[C@H]2C [Cyclopamine]	471.92	–	–	–	–	–
Nc1ccn([C@@H]2O[C@H](CO)[C@@H](O)[C@H]2O)c(=O)n1 [Cytidine]	841.40	48.00	86.49	–	–	–
N[C@H](Cc1ccccc1)C(=O)O [D-Phenylalanine]	763.78	52.80	95.13	–	–	–
O=C1CC[C@H](C(=O)O)N1 [D-Pyroglutamic acid]	938.93	41.97	75.63	–	–	–
CCN(CC)c1ccc(/C=N/NC(=O)c2ccc(O)cc2)cc1 [DY131]	878.41	45.71	82.36	–	–	–
Cc1nc(Nc2ncc(C(=O)Nc3c(C)cccc3Cl)s2)cc(N2CCN(CCO)CC2)n1 [Dasatinib Monohydrate]	410.49	74.63	134.47	–	–	–
Oc1ccc(OC2CCCCO2)cc1 (stereo not shown) [Deoxyarbutin]	653.14	59.64	107.45	–	–	–
C[C@H](CCC(=O)O)[C@H]1CC[C@H]2[C@@H]3CC[C@@H]4C[C@H](O)CC[C@]4(C)[C@H]3C[C@H](O)[C@]12C [Deoxycholic acid sodium salt]	591.12	63.47	114.35	–	–	–
CC(=O)OCC(=O)[C@@]1(O)[C@H](C)C[C@H]2[C@@H]3CCC4=CC(=O)C=C[C@]4(C)[C@@]3(F)[C@@H](O)C[C@@]21C [Dexamethasone acetate]	681.22	57.90	104.32	–	–	–
CN1CCN(c2cc3c(cc2F)c(=O)c(C(=O)O)cn3-c2ccc(F)cc2)CC1 [Difloxacin HCl]	980.30	39.42	71.02	–	–	–
COC(=O)/C=C/C(=O)OC [Dimethyl Fumarate]	786.79	51.38	92.57	–	–	–
C[C@@H]1CC[C@@]2(OC1)O[C@H]1C[C@H]3[C@@H]4CC=C5C[C@@H](O)CC[C@]5(C)[C@H]4CC[C@]3(C)[C@H]1[C@@H]2C [Diosgenin]	903.89	44.14	79.53	–	–	–
Cl.NCCc1ccc(O)c(O)c1 [Dopamine HCl]	–	–	–	995.96	38.45	69.28
CCCCc1oc2ccc(NS(C)(=O)=O)cc2c1C(=O)c1ccc(OCCCN(CCCC)CCCC)cc1 [Dronedarone]	550.43	65.98	118.89	–	–	–
Clc1ccc(COC(Cn2ccnc2)c2ccc(Cl)cc2Cl)cc1 (stereo not shown) [Econazole nitrate]	359.76	77.77	140.12	–	–	–

Compound	Mean Luminescence [1]	% Activity over baseline [2] [%]	% Activity relative to Rapamycin [3] [%]	Mean Luminescence	% Activity over baseline (10 µM) [%]	% Activity relative to Rapamycin (10 µM) [%]
O=C1C[C@@H](c2ccc(O)c(O)c2)Oc2cc(O)cc(O)c21 [Eriodictyol]	852.50	47.31	85.25	–	–	–
OC[C@@H](O)[C@@H](O)CO [Erythritol]	696.09	56.98	102.67	–	–	–
C[C@]12CC[C@@H]3c4ccc(OC(=O)c5ccccc5)cc4CC[C@H]3[C@@H]1CC[C@@H]2O [Estradiol Benzoate]	970.65	40.01	72.09	–	–	–
CCCCC(=O)O[C@H]1CC[C@H]2[C@@H]3CCc4cc(O)ccc4[C@H]3CC[C@]12C [Estradiol valerate]	924.65	42.86	77.22	–	–	–
C[C@]12CC[C@@H]3c4ccc(O)cc4CC[C@H]3[C@@H]1CC[C@@H]2O [Estradiol]	768.64	52.50	94.59	–	–	–
C[C@]12CC[C@@H]3c4ccc(O)cc4CC[C@H]3[C@@H]1C[C@@H](O)[C@@H]2O [Estriol]	784.74	51.50	92.80	–	–	–
C[C@]12CC[C@@H]3c4ccc(O)cc4CC[C@H]3[C@@H]1CCC2=O [Estrone]	670.65	58.55	105.50	–	–	–
C#C[C@]1(O)CC[C@H]2[C@@H]3CCC4=CC(=O)CC[C@]4(C)[C@H]3CC[C@@]21C [Ethisterone]	996.32	38.43	69.24	–	–	–
CCc1c(Cl)c(O)c(Cl)c(O)c1C(=O)O[C@H]1[C@H](O)[C@H](OC)[C@H](OC/C2=C\C=C\C[C@H](O)/C(C)=C/[C@H](CC)[C@@H](O[C@@H]3OC(C)(C)[C@@H](OC(=O)C(C)C)[C@H](O)[C@@H]3O)/C(C)=C/C(C)=C/C[C@@H]([C@@H](C)O)OC2=O)O[C@@H]1C [Fidaxomicin]	262.87	83.75	150.90	–	–	–
O=c1[nH]cc(F)c(=O)[nH]1 [Fluorouracil (Adrucil)]	848.60	47.56	85.68	–	–	–
C=C[C@@]1(C)CC(=O)[C@]2(O)[C@@]3(C)[C@@H](O)CCC(C)(C)[C@@H]3[C@H](O)[C@H](OC(C)=O)[C@@]2(C)O1 [Forskolin]	911.32	43.68	78.70	–	–	–
CNC[C@H](O)[C@@H](O)[C@H](O)[C@H](O)CO.CNC[C@H](O)[C@@H](O)[C@H](O)[C@H](O)CO.C[C@@H](O[C@H]1OCCN(Cc2nn(P(=O)(O)O)c(=O)[nH]2)[C@H]1c1ccc(F)cc1)c1cc(C(F)(F)F)cc(C(F)(F)F)c1 [Fosaprepitant dimeglumine salt]	756.54	53.24	95.93	–	–	–
CC1=C2C(=O)O[C@@H](c3ccoc3)[C@]2(C)CCC1 [Fraxinellone]	972.50	39.90	71.89	–	–	–
O=C(O)c1cc(O)c(O)c(O)c1 [Gallic acid]	898.71	44.46	80.10	–	–	–
COc1cc2ncnc(Nc3ccc(F)c(Cl)c3)c2cc1OCCCN1CCOCC1 [Gefitinib (ZD1839)]	960.31	40.65	73.25	–	–	–
C[C@@H]1C(=O)O[C@H]2C[C@@]34[C@H]5C[C@@H](C(C)(C)C)[C@]36[C@@H](OC(=O)[C@@H]6O)O[C@@]4(C(=O)O5)[C@]21O [Ginkgolide A]	977.84	39.57	71.29	–	–	–
CC(C)=CCC[C@](C)(O[C@@H]1O[C@H](CO)[C@@H](O)[C@H](O)[C@H]1O)[C@H]1CC[C@]2(C)[C@@H]1[C@H](O)C[C@@H]1[C@@]3(C)CC[C@H](O)C(C)(C)[C@@H]3[C@@H](O[C@@H]3O[C@H](CO)[C@@H](O)[C@H](O)[C@H]3O)C[C@]12C [Ginsenoside Rg1]	947.81	41.42	74.64	–	–	–
